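Assay format: 96-well plates, 48-hour exposure. Abbreviation: GI50, concentration required for 50% inhibition of growth.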 Active and inactive are the calls of the source. Cut-off read from the data, not from the text of the source: active = GI50 up to about 1.1 µM and inactive = higher.
How the values were obtained:
Assay in all cases: NCI-60 cell line screen, 48 h
SNB-75 = system: SNB-75
IGROV-1 = system: IGROV-1
SK-OV-3 = system: SK-OV-3
M14 = system: M14
RXF 393 = system: RXF 393
A549 = system: A549
SR = system: SR
RPMI-8226 = system: RPMI-8226
NCI-H226 = system: NCI-H226
SF-295 = system: SF-295
Hs-578T = system: Hs-578T
HCT-15 = system: HCT-15
NCI/ADR-RES = system: NCI/ADR-RES
UACC-257 = system: UACC-257
NCI-H23 = system: NCI-H23
A498 = system: A498
SK-MEL-28 = system: SK-MEL-28
MDA-MB-231 = system: MDA-MB-231
SW-620 = system: SW-620
SK-MEL-2 = system: SK-MEL-2
COLO 205 = system: COLO 205
T47D = system: T47D
MCF7 = system: MCF7
HT-29 = system: HT-29
OVCAR-3 = system: OVCAR-3
786-0 = system: 786-0
HCT-116 = system: HCT-116
SK-MEL-5 = system: SK-MEL-5
MOLT-4 = system: MOLT-4
HOP-62 = system: HOP-62
OVCAR-5 = system: OVCAR-5
SNB-19 = system: SNB-19
EKVX = system: EKVX
NCI-H522 = system: NCI-H522
KM12 = system: KM12
SN12C = system: SN12C
MDA-MB-435 = system: MDA-MB-435
MDA-N = system: MDA-N
Malme-3M = system: Malme-3M
CAKI-1 = system: CAKI-1
OVCAR-4 = system: OVCAR-4
BT-549 = system: BT-549
LOX IMVI = system: LOX IMVI
UACC-62 = system: UACC-62
TK-10 = system: TK-10
PC-3 = system: PC-3
UO-31 = system: UO-31
ACHN = system: ACHN
SF-268 = system: SF-268
DU-145 = system: DU-145
SF-539 = system: SF-539
HOP-92 = system: HOP-92
OVCAR-8 = system: OVCAR-8
U-251 = system: U-251
HL-60 = system: HL-60
K562 = system: K562
HCC 2998 = system: HCC 2998
CCRF-CEM = system: CCRF-CEM
NCI-H460 = system: NCI-H460

In the case of Clc1ccc(CN2CCCN(Cc3ccc(Cl)cc3)C2c2cc3ccccc3c3ccccc23)cc1, the GI50 (SNB-75) is reported as 22.4 µM (inactive), the GI50 (IGROV-1) is reported as > 100 µM (inactive) and the GI50 (SK-OV-3) is reported as > 100 µM (inactive). The GI50 (M14) was 18.7 µM (inactive), the GI50 (RXF 393) was 24.8 µM (inactive) and the GI50 (A549) was > 100 µM (inactive). The GI50 (SR) was 3.21 µM (inactive), the GI50 (RPMI-8226) was 45.1 µM (inactive) and the GI50 (NCI-H226) was > 100 µM (inactive). For the same molecule, the GI50 (SF-295) was 52.2 µM (inactive), the GI50 (Hs-578T) was 24.4 µM (inactive) and the GI50 (HCT-15) was 62.8 µM. For the same molecule, the GI50 (NCI/ADR-RES) was 65.8 µM (inactive), the GI50 (UACC-257) was 22.8 µM (inactive) and the GI50 (NCI-H23) was 46.3 µM (inactive). For the same molecule, the GI50 (A498) was 19 µM (inactive), the GI50 (SK-MEL-28) was 22.8 µM (inactive) and the GI50 (MDA-MB-231) was 25.4 µM (inactive). The GI50 (SW-620) was 51.8 µM (inactive), the GI50 (SK-MEL-2) was 25.5 µM (inactive) and the GI50 (COLO 205) was 19.7 µM (inactive). The GI50 (T47D) was 32.4 µM (inactive), the GI50 (MCF7) was 37.2 µM (inactive) and the GI50 (HT-29) was 36.8 µM (inactive). The GI50 (OVCAR-3) was 57.9 µM (inactive), the GI50 (786-0) was 75 µM (inactive) and the GI50 (HCT-116) was 44.8 µM (inactive). For the same molecule, the GI50 (SK-MEL-5) was 17.8 µM (inactive), the GI50 (MOLT-4) was 5.85 µM (inactive) and the GI50 (HOP-62) was > 100 µM (inactive). For the same molecule, the GI50 (OVCAR-5) was 36.9 µM (inactive), the GI50 (SNB-19) was > 100 µM (inactive) and the GI50 (EKVX) was 39.1 µM (inactive). For the same molecule, the GI50 (NCI-H522) was 18.9 µM (inactive), the GI50 (KM12) was 60.3 µM (inactive) and the GI50 (SN12C) was 67.3 µM (inactive). The GI50 (MDA-MB-435) was 30.2 µM (inactive), the GI50 (MDA-N) was 37.2 µM (inactive) and the GI50 (Malme-3M) was 18.4 µM (inactive). For the same molecule, the GI50 (CAKI-1) was 49.8 µM (inactive), the GI50 (OVCAR-4) was 55.6 µM (inactive) and the GI50 (BT-549) was 38.3 µM (inactive). For the same molecule, the GI50 (LOX IMVI) was 36.5 µM (inactive), the GI50 (UACC-62) was 18.7 µM (inactive) and the GI50 (TK-10) was 78.5 µM (inactive). The GI50 (PC-3) was 24.3 µM (inactive), the GI50 (UO-31) was 88.1 µM (inactive) and the GI50 (ACHN) was > 100 µM (inactive). For the same molecule, the GI50 (SF-268) was 44.3 µM (inactive), the GI50 (DU-145) was 44.2 µM (inactive) and the GI50 (SF-539) was 62.2 µM (inactive). The GI50 (HOP-92) was 74 µM (inactive), the GI50 (OVCAR-8) was > 100 µM (inactive) and the GI50 (U-251) was 33.3 µM (inactive).

For CCOC(=O)C12C(=O)CCN1CCc1ccccc1C2C (configuration not stated), the GI50 (IGROV-1) was > 100 µM (inactive), the GI50 (SK-OV-3) was > 100 µM (inactive) and the GI50 (M14) was > 100 µM (inactive). The GI50 (RXF 393) was > 100 µM (inactive), the GI50 (A549) was > 100 µM (inactive) and the GI50 (SR) was > 100 µM (inactive). The GI50 (RPMI-8226) was > 100 µM (inactive), the GI50 (NCI-H226) was > 100 µM (inactive) and the GI50 (SF-295) was > 100 µM (inactive). The GI50 (Hs-578T) was > 100 µM (inactive), the GI50 (HL-60) was > 100 µM (inactive) and the GI50 (HCT-15) was over 100 µM. The GI50 (NCI/ADR-RES) was > 100 µM (inactive), the GI50 (UACC-257) was > 100 µM (inactive) and the GI50 (NCI-H23) was > 100 µM (inactive). The GI50 (A498) was > 100 µM (inactive), the GI50 (SK-MEL-28) was > 100 µM (inactive) and the GI50 (MDA-MB-231) was > 100 µM (inactive). For the same molecule, the GI50 (SW-620) was > 100 µM (inactive), the GI50 (SK-MEL-2) was > 100 µM (inactive) and the GI50 (COLO 205) was > 100 µM (inactive). The GI50 (T47D) was > 100 µM (inactive), the GI50 (MCF7) was > 100 µM (inactive) and the GI50 (HT-29) was > 100 µM (inactive). For the same molecule, the GI50 (OVCAR-3) was > 100 µM (inactive), the GI50 (786-0) was > 100 µM (inactive) and the GI50 (HCT-116) was > 100 µM (inactive). The GI50 (SK-MEL-5) was > 100 µM (inactive), the GI50 (MOLT-4) was > 100 µM (inactive) and the GI50 (HOP-62) was > 100 µM (inactive). For the same molecule, the GI50 (K562) was > 100 µM (inactive), the GI50 (OVCAR-5) was > 100 µM (inactive) and the GI50 (SNB-19) was > 100 µM (inactive). For the same molecule, the GI50 (EKVX) was > 100 µM (inactive), the GI50 (NCI-H522) was > 100 µM (inactive) and the GI50 (KM12) was > 100 µM (inactive). For the same molecule, the GI50 (SN12C) was > 100 µM (inactive), the GI50 (MDA-MB-435) was > 100 µM (inactive) and the GI50 (MDA-N) was > 100 µM (inactive). For the same molecule, the GI50 (Malme-3M) was > 100 µM (inactive), the GI50 (CAKI-1) was > 100 µM (inactive) and the GI50 (OVCAR-4) was > 100 µM (inactive). The GI50 (BT-549) was > 100 µM (inactive), the GI50 (LOX IMVI) was > 100 µM (inactive) and the GI50 (UACC-62) was > 100 µM (inactive). For the same molecule, the GI50 (TK-10) was > 100 µM (inactive), the GI50 (PC-3) was > 100 µM (inactive) and the GI50 (UO-31) was > 100 µM (inactive). For the same molecule, the GI50 (ACHN) was > 100 µM (inactive), the GI50 (SF-268) was > 100 µM (inactive) and the GI50 (DU-145) was > 100 µM (inactive). For the same molecule, the GI50 (SF-539) was > 100 µM (inactive), the GI50 (HOP-92) was > 100 µM (inactive) and the GI50 (OVCAR-8) was > 100 µM (inactive). The GI50 (U-251) was > 100 µM (inactive).

O=P(c1ccccc1)(c1ccccc1)N1O[C@@H](c2ccccc2)C=C[C@H]1c1ccccc1 was tested, and the GI50 (SNB-75) was 13.3 µM (inactive), the GI50 (IGROV-1) was 10.8 µM (inactive) and the GI50 (SK-OV-3) was 15.1 µM (inactive). The GI50 (M14) was 10.9 µM (inactive), the GI50 (RXF 393) was 10 µM (inactive) and the GI50 (A549) was 8.81 µM (inactive). For the same molecule, the GI50 (SR) was 4.46 µM (inactive), the GI50 (RPMI-8226) was 5.79 µM (inactive) and the GI50 (NCI-H226) was 11.9 µM (inactive). For the same molecule, the GI50 (SF-295) was 11.6 µM (inactive), the GI50 (Hs-578T) was 14.2 µM (inactive) and the GI50 (HL-60) was 5.24 µM (inactive). The GI50 (HCT-15) was 10 µM, the GI50 (NCI/ADR-RES) was 7.13 µM (inactive) and the GI50 (UACC-257) was 11.9 µM (inactive). The GI50 (NCI-H23) was 10.8 µM (inactive), the GI50 (SK-MEL-28) was 17.3 µM (inactive) and the GI50 (MDA-MB-231) was 8.24 µM (inactive). The GI50 (SW-620) was 12.9 µM (inactive), the GI50 (SK-MEL-2) was 12 µM (inactive) and the GI50 (COLO 205) was 12.3 µM (inactive). For the same molecule, the GI50 (T47D) was 4.61 µM (inactive), the GI50 (MCF7) was 3.4 µM (inactive) and the GI50 (HT-29) was 9.75 µM (inactive). For the same molecule, the GI50 (OVCAR-3) was 11.6 µM (inactive), the GI50 (786-0) was 10.4 µM (inactive) and the GI50 (HCT-116) was 4.11 µM (inactive). For the same molecule, the GI50 (SK-MEL-5) was 11.4 µM (inactive), the GI50 (MOLT-4) was 5.32 µM (inactive) and the GI50 (HOP-62) was 13.1 µM (inactive). The GI50 (K562) was 6.17 µM (inactive), the GI50 (OVCAR-5) was 16 µM (inactive) and the GI50 (SNB-19) was 14.8 µM (inactive). The GI50 (HCC 2998) was 13.7 µM (inactive), the GI50 (EKVX) was 10.4 µM (inactive) and the GI50 (CCRF-CEM) was 10.5 µM (inactive). The GI50 (NCI-H522) was 9.33 µM (inactive), the GI50 (KM12) was 14.5 µM (inactive) and the GI50 (SN12C) was 4.36 µM (inactive). For the same molecule, the GI50 (MDA-MB-435) was 4.2 µM (inactive), the GI50 (MDA-N) was 3.31 µM (inactive) and the GI50 (Malme-3M) was 14.5 µM (inactive). The GI50 (CAKI-1) was 5.66 µM (inactive), the GI50 (OVCAR-4) was 2.57 µM (inactive) and the GI50 (BT-549) was 17.5 µM (inactive). The GI50 (LOX IMVI) was 7.19 µM (inactive), the GI50 (UACC-62) was 6.17 µM (inactive) and the GI50 (TK-10) was 14 µM (inactive). For the same molecule, the GI50 (PC-3) was 2.96 µM (inactive), the GI50 (UO-31) was 5.13 µM (inactive) and the GI50 (ACHN) was 10.2 µM (inactive). For the same molecule, the GI50 (SF-268) was 12.4 µM (inactive), the GI50 (DU-145) was 13 µM (inactive) and the GI50 (SF-539) was 16.2 µM (inactive). The GI50 (NCI-H460) was 5.53 µM (inactive), the GI50 (HOP-92) was 11.6 µM (inactive) and the GI50 (OVCAR-8) was 12.8 µM (inactive). The GI50 (U-251) was 4.37 µM (inactive).

Reference: ChEMBL document CHEMBL1201862, “PubChem BioAssay data set” (2004)
